From patent US9284303B2, “Benzimidazole cannabinoid agonists bearing a substituted heterocyclic group” (priority 2006, dated 2016)
Like-named read-outs stand apart in the source and are kept apart here.

What was measured:
[1] = target: T1, human CB1 (hCB1) receptor (Homo sapiens, UniProt P21554); assay: Inhibition of forskolin-activated cAMP production upon activation of hCB1 (HTRF), CHO-K1 cells; assay type: cell-based; conditions: forskolin-activated cAMP, pEC50=-log(EC50); for EC50: CB1 pEC50, hCB1-CHO-K1 cells
T1 construct: expressed in transfected cells; host or cells: CHO-K1
T1 sequence (P21554 whole entry): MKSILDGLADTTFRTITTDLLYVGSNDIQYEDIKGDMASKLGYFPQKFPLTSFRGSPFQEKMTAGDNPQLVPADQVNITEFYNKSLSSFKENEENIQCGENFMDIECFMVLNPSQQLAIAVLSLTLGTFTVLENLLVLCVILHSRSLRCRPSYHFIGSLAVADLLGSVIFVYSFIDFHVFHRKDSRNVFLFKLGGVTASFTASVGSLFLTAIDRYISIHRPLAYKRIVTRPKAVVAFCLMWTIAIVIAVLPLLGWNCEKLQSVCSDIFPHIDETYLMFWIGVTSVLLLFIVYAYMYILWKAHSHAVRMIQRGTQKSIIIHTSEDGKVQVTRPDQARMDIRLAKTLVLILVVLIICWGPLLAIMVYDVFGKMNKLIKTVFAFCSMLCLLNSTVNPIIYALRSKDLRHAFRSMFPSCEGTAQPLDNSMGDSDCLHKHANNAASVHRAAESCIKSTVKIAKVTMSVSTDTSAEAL
How it was run: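 CHO-K1 cells stably expressing hCB1 (20,000/well) were in HBSS stimulation buffer (1 mM IBMX, 10 mM MgCl2, 0.1% BSA, pH 7.4), with 6 μM forskolin in the compound buffer, 30 min at room temperature in the dark. cAMP was read as HTRF 665/620 ratio, normalized to DMSO and CP55490. Outputs were pEC50 and inhibition at 10 μM relative to CP55490.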

[2] = target: T2, human CB2 (hCB2) receptor (Homo sapiens, UniProt P34972); assay: Inhibition of forskolin-activated cAMP production upon activation of hCB2 (HTRF), CHO-K1 cells; assay type: cell-based; conditions: for ratio CB2 agonism over CB1 agonism: Table C-1, selectivity hCB2 over hCB1; for EC50: forskolin-activated cAMP, pEC50=-log(EC50)
T2 construct: expressed in transfected cells; host or cells: CHO-K1
T2 sequence (P34972 whole entry): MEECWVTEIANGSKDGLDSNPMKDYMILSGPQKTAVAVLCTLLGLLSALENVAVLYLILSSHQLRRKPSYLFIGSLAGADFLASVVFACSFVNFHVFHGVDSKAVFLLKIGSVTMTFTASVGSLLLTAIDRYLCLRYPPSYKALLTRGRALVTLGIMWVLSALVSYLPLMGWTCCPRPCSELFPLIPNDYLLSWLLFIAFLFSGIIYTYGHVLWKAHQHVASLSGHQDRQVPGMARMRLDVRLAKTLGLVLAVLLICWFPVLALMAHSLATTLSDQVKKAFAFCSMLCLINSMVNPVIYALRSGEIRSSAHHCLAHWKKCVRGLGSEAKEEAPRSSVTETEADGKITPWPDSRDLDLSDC

[3] = hCB2-CHO-K1 cells, read-out: CB2 pEC50 (converted)

SMILES	EC50 [1] [nM]	melting point [°C]	ratio CB2 agonism over CB1 agonism [2]	EC50 [2, 3] [nM]	CB1 pEC50 ([1]; hCB1-CHO-K1 cells)	EC50 ([2]; CB2 pEC50, hCB2-CHO-K1 cells) [nM]
COc1cc(S(=O)(=O)c2ccc3c(c2)nc(C(C)(C)C)n3CC2CCOCC2)c(F)cn1 [Co. No. 72]	1020	139.6 to 140.2	1525	0.676	–	–
CC(C)(C)c1nc2cc(S(=O)(=O)c3ccc(C(N)=O)s3)ccc2n1CC1CCOCC1 [Co. No. 73]	117	209.4	84	1.38	–	–
COC(=O)c1cc(S(=O)(=O)c2ccc3c(c2)nc(C(C)(C)C)n3CC2CCOCC2)c[nH]1 [Co. No. 75]	9550	231	2291	4.17	–	–
CC(C)(C)c1nc2cc(S(=O)(=O)c3ccc(C(=O)N4CCOCC4)s3)ccc2n1CC1CCOCC1 [Co. No. 79]	1580	184.6	543	2.95	–	–
CC(C)(C)c1nc2cc(S(=O)(=O)c3ccc(C(=O)N4CCOCC4)o3)ccc2n1CC1CCOCC1 [Co. No. 80]	10500	172.1	2483	4.17	–	–
COC(=O)c1cc(C)c(S(=O)(=O)c2ccc3c(c2)nc(C(C)(C)C)n3CC2CCOCC2)s1 [Co. No. 81]	1070	185.8	2138	0.501	–	–
CC(C)(C)c1nc2cc(S(=O)(=O)c3cc(O)ncc3F)ccc2n1CC1CCOCC1 [Co. No. 82]	1580	291.8 to 294.6	407	3.89	–	–
CC(C)(C)c1nc2cc(S(=O)(=O)c3c(Cl)cncc3Cl)ccc2n1CC1CCOCC1 [Co. No. 84]	617	242.9	490	1.26	–	–
CC(C)(C)c1nc2cc([S+]([O-])c3c(Cl)cncc3Cl)ccc2n1CC1CCOCC1 (stereo not drawn) [Co. No. 85]	832	192.9	891	0.933	–	–
CC(C)(C)c1nc2cc(S(=O)(=O)c3cc[n+]([O-])cc3Br)ccc2n1CC1CCOCC1 [Co. No. 87]	2290	205.3	–	2.14	–	–
CC(C)(C)c1nc2cc([S+]([O-])c3ccncc3Br)ccc2n1CC1CCOCC1 (stereo not drawn) [Co. No. 88]	1260	184.7	537	2.34	–	–
Cc1cc(S(=O)(=O)c2ccc3c(c2)nc(C(C)(C)C)n3CC2CCOCC2)cc[n+]1[O-] [Co. No. 89]	> 10000	215.3	–	11.2	–	–
CC(C)(C)c1nc2cc(S(=O)(=O)c3ccn(/C(F)=C/I)c(=O)c3)ccc2n1CC1CCOCC1 [Co. No. 90]	> 10000	113.9	>3715	2.69	–	–
COc1ccc(S(=O)(=O)c2ccc3c(c2)nc(C(C)(C)C#N)n3CC2CCOCC2)nn1 [Co. No. 92]	2950	161.1	437	6.92	–	–
CC(C)(C)c1nc2cc(S(=O)(=O)c3ccc(=O)[nH]n3)ccc2n1CC1CCOCC1 [Co. No. 94]	2690	218.3	1059	2.51	–	–
CC(=O)Nc1cc(S(=O)(=O)c2ccc3c(c2)nc(C(C)(C)C)n3CC2CCOCC2)cc[n+]1[O-] [Co. No. 96]	> 10000	247.2	–	2	–	–
CC(C)(C)c1nc2cc(S(=O)(=O)c3ccn(CC(F)(F)F)c(=O)c3)ccc2n1CC1CCOCC1 [Co. No. 97]	3890	152.9	2065	1.86	–	–
CC(C)(C)c1nc2cc(S(=O)(=O)c3cccc(C#N)n3)ccc2n1CC1CCOCC1 [Co. No. 98]	741	224.5 to 226.7	794	0.955	–	–
CC(C)(C)c1nc2cc(S(=O)(=O)c3ccc(C(F)(F)F)cn3)ccc2n1CC1CCOCC1 [Co. No. 99]	933	140.5 to 142.3	700	1.32	–	–
Cn1nc(S(=O)(=O)c2ccc3c(c2)nc(C(C)(C)C)n3CC2CCOCC2)ccc1=O [Co. No. 100]	1000	224.3	631	1.58	–	–
CC(=O)Nc1ccc(S(=O)(=O)c2ccc3c(c2)nc(C(C)(C)C)n3CC2CCOCC2)nn1 [Co. No. 101]	148	290.1	58	2.51	–	–

SMILES	EC50 [1] [nM]	melting point [°C]	ratio CB2 agonism over CB1 agonism [2]	EC50 [2, 3] [nM]	CB1 pEC50 ([1]; hCB1-CHO-K1 cells)	EC50 ([2]; CB2 pEC50, hCB2-CHO-K1 cells) [nM]
Cc1cc(S(=O)(=O)c2ccc3c(c2)nc(CC(C)(C)C)n3CC2CCOCC2)cc[n+]1[O-] [Co. No. 102]	9120	231.7	–	5.01	–	–
CC(C)(C)Cc1nc2cc(S(=O)(=O)c3cc[n+]([O-])cc3)ccc2n1CC1CCOCC1 [Co. No. 103]	2090	259.7	–	7.08	–	–
CC(C)(C)c1nc2cc(S(=O)(=O)c3ncccc3C#N)ccc2n1CC1CCOCC1 [Co. No. 104]	87.1	100 to 105	117	0.741	–	–
CC(C)(C)c1nc2cc(S(=O)(=O)c3cc(C(F)(F)F)ccn3)ccc2n1CC1CCOCC1 [Co. No. 105]	479	139.5 to 141	295	1.58	–	–
CC(C)(C)c1nc2cc(S(=O)(=O)c3coc(C(F)(F)F)c3)ccc2n1CC1CCOCC1 [Co. No. 106]	316	168 to 169.5	432	0.724	–	–
Cc1nccc(S(=O)(=O)c2ccc3c(c2)nc(C(C)(C)C)n3CC2CCOCC2)n1 [Co. No. 107]	1550	179.7	646	2.4	–	–
CC(C)(C)c1nc2cc(S(=O)(=O)c3ccnc(F)c3)ccc2n1CC1CCN(C=O)CC1 [Co. No. 112]	> 10000	196.7	>2030	4.9	–	–
CC(=O)NCc1ccc(S(=O)(=O)c2ccc3c(c2)nc(C(C)(C)C)n3CC2CCOCC2)cn1 [Co. No. 117]	977	199.4	219	4.47	–	–
CC(C)(C)CCn1c(C(C)(C)C)nc2cc(S(=O)(=O)c3ccnc(F)c3)ccc21 [Co. No. 120]	> 10000	131.5	>4365	2.29	–	–
CC(=O)NCCOc1cc(S(=O)(=O)c2ccc3c(c2)nc(C(C)(C)C)n3CC2CCOCC2)ccn1 [Co. No. 121]	2820	182.3	912	3.09	–	–
CC(=O)NCCNc1cc(S(=O)(=O)c2ccc3c(c2)nc(C(C)(C)C)n3CC2CCOCC2)ccn1 [Co. No. 123]	> 10000	217.2	>2399	4.17	–	–
COCCCNc1cc(S(=O)(=O)c2ccc3c(c2)nc(C(C)(C)C)n3CC2CCOCC2)ccn1 [Co. No. 126]	–	148.3	1129	0.851	6.02	–
CC(C)(C)Cn1c(C(C)(C)C)nc2cc(S(=O)(=O)c3ccnc(F)c3)ccc21 [Co. No. 127]	> 10000	135.4	6026	–	–	1.66
CC(C)(C)c1nc2cc(S(=O)(=O)c3ccnc(F)c3)ccc2n1CCC1CCOCC1 [Co. No. 128]	> 10000	177.8	>4786	2.09	–	–
CN(C)CCCOc1cc(S(=O)(=O)c2ccc3c(c2)nc(C(C)(C)C)n3CC2CCOCC2)ccn1 [Co. No. 129]	9550	119.4	617	15.5	–	–
CC(C)(C)c1nc2cc(S(=O)(=O)c3ccnc(F)c3)ccc2n1CC1CCS(=O)(=O)CC1 [Co. No. 133]	> 10000	220.8	>2512	3.98	–	–
CC(C)(C)c1nc2cc(S(=O)(=O)c3ccnc(F)c3)ccc2n1CC1CCC(=O)CC1 [Co. No. 134]	3800	164.8	2786	1.38	–	–
CC(C)(C)c1nc2cc(S(=O)(=O)c3ccnc(F)c3)ccc2n1CCN1CCCC1 [Co. No. 144]	> 10000	115.5	>3090	3.24	–	–
CC(C)(C)c1nc2cc(S(=O)(=O)c3ccnc(F)c3)ccc2n1C[C@H]1CC[C@H](O)CC1 [Co. No. 146]	> 10000	163.6	>3981	2.51	–	–
CCC(CC)Cn1c(C(C)(C)C)nc2cc(S(=O)(=O)c3ccnc(F)c3)ccc21 [Co. No. 147]	> 10000	130.9	>10471	0.955	–	–
